Assay results reported in patent US20260240644A1, “BIOPOLYMER-BASED TYMPANOSTOMY TUBES WITH PROGRAMMABLE, TUNABLE, AND ON-DEMAND DEGRADATION” (Trustees of Tufts College, priority 2023, published 2026).

Tested on: Xen29, a Staphylococcus aureus strain
Assay: Kirby Bauer disc diffusion assay of Ciprodex-loaded chitosan
Type: cell-based
Details: loaded in chitosan; growth inhibition of Xen29
Description: FIG. 27 depicts results of the Kirby Bauer disc diffusion assay.
To estimate the concentration of ciprofloxacin released by the chitosan, a standard curve was established using blank paper discs and known dilutions of Ciprodex.

O=C(O)c1cn(C2CC2)c2cc(N3CCNCC3)c(F)cc2c1=O [Ciprofloxacin, ciprofloxacin]
bioactivity of loaded Ciprofloxacin: maintained its bioactivity
